Data as given in patent publication US20170246130A1, “4-HYDROXYBENZOHYDARZIDE-A NEW CLASS OF ANGIOGENIC ENZYME THYMIDINE PHOSPHORYLASE INHIBITORS” (priority 2016, published 2017).
“Also recorded” adds a separate entry of the source. Like-named read-outs stand apart in the source and are kept apart here.

Legend:
[1] = biological target: T1, thymidine phosphorylase (E. coli) (Escherichia coli, UniProt P07650); test: In-vitro thymidine phosphorylase inhibition assay (spectrophotometric); assay type: biochemical; conditions: recombinant E. coli TP, thymidine substrate, pH 7.0, 30° C., 290 nm; for IC50: read-out: IC50 (μM ± S.E.M.), thymidine phosphorylase inhibition
T1 construct: purchased Sigma Aldrich, USA; host or cells: Escherichia coli
Procedure: In vitro studies on thymidine phosphorylase were carried out in 96-well microtiter plate using Spectra Max-340 and Spectra Max-384 spectrophotometers (Molecular Devices, CA, USA). Deionized water used for buffer preparation was collected by Simplicity Water Purification System (Milipore).
Since human TP is not commercially available, we used commercially available recombinant E. coli TP (expressed in Escherichia coli) enzyme. Primary sequence of TP is mostly conserved throughout the evolution as mammalian TP share 39% sequence similarity with TP of E. coli. The mammalian enzyme also shared 65-70% similarity with the active site residues of E. coli TP enzyme (Bronckaers et al., 2009). Assay for thymidine phosphorylase inhibition was performed spectrophotometrically, following method of Bera et al. with some modifications (Bera et al., 2013).
The reaction catalyzed by thymidine phosphorylase involves reversible phosphorolysis of thymidine (FIG. 1), to thymine and 2-deoxyribose-1-phosphate (Bronckaers et al., 2009).
Reaction mixture contained 150 μL of potassium phosphate buffer (pH 7.0, 50 mM), 20 µL of enzyme (0.058 U/well) and 10 μL of test compound (0.5 mM in dimethylsulfoxide). The reaction mixture was incubated for 10 min at 30° C.
The enzyme inhibitory activities were calculated using the following formula:
Percent Inhibition=100−(O.D. of test/O.D. of control)×100
Where test is the enzyme activity with sample, and control is the enzyme activity without sample, and O.D. is optical density.
The IC50 of the compounds was calculated using EZ-Fit Enzyme Kinetic Program (Perrella Scientific Inc., Amhrest, U.S.A.).

[2] = tested on: mouse fibroblast cell line (3T3); test: MTT anti-proliferative assay, 3T3 cells; assay type: cell-based; conditions: for IC50 ± SD (μM), 3T3 Cell Line / IC50: 3T3 cells; for inhibition of the proliferation of 3T3 cells (in words): in comparison to cyclohexamide; for IC50: read-out: IC50 ± SD (μM), 3T3 Cell Line
Procedure: (§1) Compounds found to be active in inhibiting thymidine phosphorylase were then subjected to MTT proliferation assay. Rapid proliferation is the property inherent to cancerous/tumor cells. This assay was carried out to study the effect of these compounds on proliferation of various cell lines. The cell lines which we targeted were mouse fibroblast cell line (3T3), and prostate cancer line (PC3).
(§2) Anti-proliferative activity of active compounds was evaluated by using the standard MTT (3-[4,5-dimethylthiazole-2-yl]-2,5-diphenyl-tetrazolium bromide) colorimetric assay in 96-well plate (Dimas et al., 1998).
(§3) It is a colorimetric assay that measures the reduction of MTT, by mitochondrial enzyme i.e. succinate dehydrogenase. The MTT enters into the mitochondria of cell, where it is reduced to an insoluble formazan salt (FIG. 8). The extent of MTT reduction was measured at 540 nm. As reduction of MTT can only occur in metabolically active cells, the level of activity is actually a measure of the viability of the cells (Vega-Avila and Pugsley, 2011).
(§4) Mouse fibroblast cell line 3T3 was cultured in DMEM, supplemented with 5% of FBS, 100 IU/mL of penicillin and 100 μg/mL of streptomycin, and kept at 37° C. in 5% CO2 incubator. For the preparation of cell culture, 100 μL/well of cell solution (5×10^4 cells/mL) was added into 96-well plate. The plate was incubated for overnight, and fresh medium was added after the removal of old medium. The test compounds were also added in different concentrations into the plate and plate was again incubated for 48 h. After the completion of this incubation period, 200 μL MTT (0.5 mg/mL) was added and plate was again incubated for 4 h, after this final incubation 100 μL of DMSO was added to each well. The level of MTT reduction to formazan was evaluated by change in absorbance at 540 nm using a micro plate reader (Spectra Max plus, Molecular Devices, CA, USA).

[3] = tested on: prostate cancer line (PC3); test: MTT anti-proliferative assay, PC3 cells; assay type: cell-based; conditions: for IC50: read-out: IC50 ± SD (μM), PC3 Cell Line; for inhibition of the proliferation of PC3 cancer cells (in words): in comparison of doxorubucin
Procedure: as §1, §2, §3, §4

T1 sequence (P07650 whole entry): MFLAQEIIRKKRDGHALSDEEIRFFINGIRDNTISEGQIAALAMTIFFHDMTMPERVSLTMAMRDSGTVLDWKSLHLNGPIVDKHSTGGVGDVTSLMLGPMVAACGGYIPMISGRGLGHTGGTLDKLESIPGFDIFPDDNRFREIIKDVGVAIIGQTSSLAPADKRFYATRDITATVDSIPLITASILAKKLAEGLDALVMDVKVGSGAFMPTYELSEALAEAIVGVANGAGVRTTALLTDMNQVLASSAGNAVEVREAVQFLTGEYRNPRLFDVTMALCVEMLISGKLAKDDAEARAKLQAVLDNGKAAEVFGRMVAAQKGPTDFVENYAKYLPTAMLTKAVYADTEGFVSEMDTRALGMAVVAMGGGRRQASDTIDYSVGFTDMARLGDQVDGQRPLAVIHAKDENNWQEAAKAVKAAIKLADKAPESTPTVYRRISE

| Compound | IC50 [1] [µM] | IC50 ± SD (μM), PC3 Cell Line ([3]; PC3 cells) | IC50 (μM ± S.E.M.), thymidine phosphorylase inhibition [1] | also measured |
| --- | --- | --- | --- | --- |
| COc1ccccc1/C=N/NC(=O)c1ccc(O)cc1 [Compound 9, 4-Hydroxy-N′-[(E)-(2-methoxyphenyl)methylidene]benzohydrazide] | 183.7 ± 1.5 | Inactive |  | IC50 ± SD (μM), 3T3 Cell Line ([2]; 48 h): Inactive |
| O=C(N/N=C/c1cccc(O)c1O)c1ccc(O)cc1 [Compound 4, 4-Hydroxy-N′-[(E)-(2,3-dihydroxyphenyl)methylidene]benzohydrazide] | 170.6 ± 0.5 |  |  | inhibition of the proliferation of 3T3 cells (in words) [2]: significantly inhibit; IC50 ([3]; Homo sapiens, PC-3, PC3 cells): 7.61 ± 0.49 µM; inhibition of the proliferation of PC3 cancer cells (in words) [3]: significantly inhibit |
| CCOc1cccc(/C=N/NC(=O)c2ccc(O)cc2)c1O [Compound 21, 4-Hydroxy-N′-[(E)-(3-ethoxy-2-hydroxyphenyl)methylidene]benzohydrazide] | 190.3 ± 0.4 |  |  | inhibition of the proliferation of 3T3 cells (in words) [2]: significantly inhibit; IC50 ([3]; Homo sapiens, PC-3, PC3 cells): 6.54 ± 0.278 µM; inhibition of the proliferation of PC3 cancer cells (in words) [3]: significantly inhibit |
| O=C(N/N=C/c1c(O)cc(O)cc1O)c1ccc(O)cc1 [Compound 7, 4-Hydroxy-N′-[(E)-(2,4,6-trihydroxyphenyl)methylidene]benzohydrazide] |  |  | Inactive |  |
| C[C@@H]1C[C@@H]([C@H](O)CC2CC(=O)NC(=O)C2)C(=O)[C@@H](C)C1 [Cyclohexamide, reference compound] |  |  |  | IC50 ([2]; 48 h): 0.26 ± 0.1 µM |
| O=C(N/N=C/c1ccc(Cl)cc1Cl)c1ccc(O)cc1 [Compound 15, 4-Hydroxy-N′-[(E)-(2,4-dichlorophenyl)methylidene]benzohydrazide] |  |  | Inactive |  |
| CSc1ccc(/C=N/NC(=O)c2ccc(O)cc2)cc1 [Compound 18] |  |  | unable to inhibit the enzyme; also recorded: Inactive |  |
| O=C(N/N=C/c1cc(Cl)ccc1O)c1ccc(O)cc1 [Compound 23, 4-Hydroxy-N′-[(E)-(5-chloro-2-hydroxyphenyl)methylidene]benzohydrazide] |  |  | Inactive |  |
| COc1cccc(/C(C)=N/NC(=O)c2ccc(O)cc2)c1O [Compound 29, 4-Hydroxy-N′-[(E)-1-(2-hydroxy-3-methoxyphenyl)ethylidene]benzohydrazide] | 174.2 ± 1 |  |  | IC50 ([2]; Mus musculus, NIH3T3, 48 h): 18.6 ± 0.6 µM; inhibition of the proliferation of 3T3 cells (in words) [2]: significantly inhibit; IC50 ([3]; Homo sapiens, PC-3, PC3 cells): 8.48 ± 0.592 µM; inhibition of the proliferation of PC3 cancer cells (in words) [3]: significantly inhibit |
| O=C(N/N=C/c1ccc(O)cc1)c1ccc(O)cc1 [Compound 3, 4-Hydroxy-N′-[(E)-(4-hydroxyphenyl)methylidene]benzohydrazide] | 199.4 ± 0.4 | Inactive |  | IC50 ± SD (μM), 3T3 Cell Line ([2]; 48 h): Inactive |
| C/C(=N\NC(=O)c1ccc(O)cc1)c1ccc(O)cc1O [Compound 26, 4-Hydroxy-N′-[(E)-1-(2,4-dihydroxyphenyl)ethylidene]benzohydrazide] |  |  | Inactive |  |
| O=C(N/N=C/c1ccccc1O)c1ccc(O)cc1 [Compound 1, 4-Hydroxy-N′-[(E)-(2-hydroxyphenyl)methylidene]benzohydrazide] | 189.1 ± 0.1 |  |  | inhibition of the proliferation of 3T3 cells (in words) [2]: significantly inhibit; IC50 ([3]; Homo sapiens, PC-3, PC3 cells): 7.58 ± 0.462 µM; inhibition of the proliferation of PC3 cancer cells (in words) [3]: significantly inhibit |
| Cc1ccccc1/C=N/NC(=O)c1ccc(O)cc1 [Compound 16, 4-Hydroxy-N′-[(E)-(2-methylphenyl)methylidene]benzohydrazide] | 177.2 ± 0.5 | Inactive |  | IC50 ± SD (μM), 3T3 Cell Line ([2]; 48 h): Inactive |
| COc1ccc(O)c(/C=N/NC(=O)c2ccc(O)cc2)c1 [Compound 20, 4-Hydroxy-N′-[(E)-(2-hydroxy-5-methoxyphenyl)methylidene]benzohydrazide] | 172 ± 2.7 |  |  | inhibition of the proliferation of 3T3 cells (in words) [2]: significantly inhibit; IC50 ([3]; Homo sapiens, PC-3, PC3 cells): 10.5 ± 0.551 µM; inhibition of the proliferation of PC3 cancer cells (in words) [3]: significantly inhibit |
| O=C(N/N=C/c1ccc(O)c(O)c1O)c1ccc(O)cc1 [Compound 8, 4-Hydroxy-N′-[(E)-(2,3,4-trihydroxyphenyl)methylidene]benzohydrazide] |  |  | Inactive |  |
| O=C(N/N=C/c1cc(Br)ccc1O)c1ccc(O)cc1 [Compound 22, 4-Hydroxy-N′-[(E)-(5-bromo-2-hydroxyphenyl)methylidene]benzohydrazide] |  |  | Inactive |  |
| C/C(=N\NC(=O)c1ccc(O)cc1)c1ccccc1O [Compound 25, 4-Hydroxy-N′-[(E)-1-(2-Hydroxyphenyl)ethylidene]benzohydrazide] |  |  | Inactive |  |
| CN(C)c1ccc(/C=N/NC(=O)c2ccc(O)cc2)cc1 [Compound 17, 4-Hydroxy-N′-[(E)-[4-dimethylaminophenyl]methylidene]benzohydrazide] |  |  | unable to inhibit the enzyme; also recorded: Inactive |  |
| O=C(N/N=C/c1cc(O)c(O)cc1O)c1ccc(O)cc1 [Compound 6, 4-Hydroxy-N′-[(E)-(2,4,5-trihydroxyphenyl)methylidene]benzohydrazide] | 208 ± 0.9 | Inactive |  | inhibition of the proliferation of 3T3 cells (in words) [2]: significantly inhibit |
| COc1cccc2c1C(=O)c1c(O)c3c(c(O)c1C2=O)C[C@@](O)(C(=O)CO)C[C@@H]3O[C@H]1C[C@H](N)[C@H](O)[C@H](C)O1 [Doxorubucin, reference compound] |  |  |  | IC50 ([3]; PC3 cells): 0.91 ± 0.1 µM |
| C/C(=N\NC(=O)c1ccc(O)cc1)c1cc(O)ccc1O [Compound 28, 4-Hydroxy-N′-[(E)-1-(2,5-dihydroxyphenyl)ethylidene]benzohydrazide] | 183.4 ± 0.9 | Inactive |  | inhibition of the proliferation of 3T3 cells (in words) [2]: significantly inhibit |
| COc1ccc(/C=N/NC(=O)c2ccc(O)cc2)cc1OC [Compound 11, 4-Hydroxy-N′-[(E)-(3,4-dimethoxyphenyl)methylidene]benzohydrazide] | 204 ± 3 | Inactive |  | IC50 ± SD (μM), 3T3 Cell Line ([2]; 48 h): Inactive |
| O=C(N/N=C/c1cccc(O)c1)c1ccc(O)cc1 [Compound 2, 4-Hydroxy-N′-[(E)-(3-hydroxyphenyl)methylidene]benzohydrazide] | 180 ± 3 | Inactive |  | IC50 ± SD (μM), 3T3 Cell Line ([2]; 48 h): Inactive |
| COc1ccc(/C=N/NC(=O)c2ccc(O)cc2)cc1 [Compound 10, 4-Hydroxy-N′-[(E)-(4-methoxyphenyl)methylidene]benzohydrazide] | 186 ± 2 | Inactive |  | IC50 ± SD (μM), 3T3 Cell Line ([2]; 48 h): Inactive |
